Assay results: PubChem BioAssay (NCI)
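A five-concentration, 48-hour dose response in 96-well plates underlies each endpoint, interpolated linearly between surrounding concentrations. GI50 is the concentration that inhibits growth by half. TGI: total growth inhibition.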

Assays:
Assay in all cases: growth of human tumour cells (NCI), 48 h
SNB-75 CNS = tested on: SNB-75 CNS
LOX IMVI melanoma = tested on: LOX IMVI melanoma
HOP-92 NSCLC = tested on: HOP-92 NSCLC
UACC-62 melanoma = tested on: UACC-62 melanoma
SK-MEL-28 melanoma = tested on: SK-MEL-28 melanoma
SF-539 CNS = tested on: SF-539 CNS
MCF7 breast = tested on: MCF7 breast
HCC-2998 colon = tested on: HCC-2998 colon
IGROV1 ovarian = tested on: IGROV1 ovarian
A498 renal = tested on: A498 renal
HS 578T breast = tested on: HS 578T breast
RPMI-8226 leukemia = tested on: RPMI-8226 leukemia
U251 CNS = tested on: U251 CNS
DU-145 prostate = tested on: DU-145 prostate
NCI-H226 lung = tested on: NCI-H226 lung
OVCAR-4 ovarian = tested on: OVCAR-4 ovarian
SF-268 CNS = tested on: SF-268 CNS
SF-295 CNS = tested on: SF-295 CNS
UO-31 renal = tested on: UO-31 renal
T-47D breast = tested on: T-47D breast
HCT-15 colon = tested on: HCT-15 colon
MDA-MB-435 = tested on: MDA-MB-435
SNB-19 CNS = tested on: SNB-19 CNS
SW-620 colon = tested on: SW-620 colon
MDA-MB-468 breast = tested on: MDA-MB-468 breast
NCI-H522 lung = tested on: NCI-H522 lung
UACC-257 melanoma = tested on: UACC-257 melanoma
TK-10 renal = tested on: TK-10 renal
SK-MEL-5 melanoma = tested on: SK-MEL-5 melanoma

CC12OOC(C)(OO1)C2CCC(=O)OCCNc1ccnc2cc(Cl)ccc12 (stereo not drawn)
GI50 (SNB-75 CNS): > 18.3 µM
TGI (SNB-75 CNS): > 18.3 µM
GI50 (LOX IMVI melanoma): 2.87 µM
TGI (LOX IMVI melanoma): 5.39 µM
GI50 (HOP-92 NSCLC): 2.72 µM
TGI (HOP-92 NSCLC): 7.92 µM
GI50 (UACC-62 melanoma): > 18.3 µM
TGI (UACC-62 melanoma): > 18.3 µM
GI50 (SK-MEL-28 melanoma): > 18.3 µM
TGI (SK-MEL-28 melanoma): > 18.3 µM
GI50 (SF-539 CNS): > 18.3 µM
TGI (SF-539 CNS): > 18.3 µM
GI50 (MCF7 breast): 7.76 µM
TGI (MCF7 breast): > 18.3 µM
GI50 (HCC-2998 colon): > 18.3 µM
TGI (HCC-2998 colon): > 18.3 µM
GI50 (IGROV1 ovarian): 6.59 µM
TGI (IGROV1 ovarian): > 18.3 µM
GI50 (A498 renal): > 18.3 µM
TGI (A498 renal): > 18.3 µM
GI50 (HS 578T breast): > 18.3 µM
TGI (HS 578T breast): > 18.3 µM
GI50 (RPMI-8226 leukemia): 8.81 µM
TGI (RPMI-8226 leukemia): > 18.3 µM
GI50 (U251 CNS): > 18.3 µM
TGI (U251 CNS): > 18.3 µM
GI50 (DU-145 prostate): 3.47 µM
TGI (DU-145 prostate): 6.32 µM
GI50 (NCI-H226 lung): 4.19 µM
TGI (NCI-H226 lung): 14.2 µM
GI50 (OVCAR-4 ovarian): 3.5 µM
TGI (OVCAR-4 ovarian): 7.42 µM
GI50 (SF-268 CNS): > 18.3 µM
TGI (SF-268 CNS): > 18.3 µM
GI50 (SF-295 CNS): > 18.3 µM
TGI (SF-295 CNS): > 18.3 µM
GI50 (UO-31 renal): 2.57 µM
TGI (UO-31 renal): 4.94 µM
GI50 (T-47D breast): > 18.3 µM
TGI (T-47D breast): > 18.3 µM
GI50 (HCT-15 colon): 2.87 µM
TGI (HCT-15 colon): 5.47 µM
GI50 (MDA-MB-435): 18.3 µM
TGI (MDA-MB-435): > 18.3 µM
GI50 (SNB-19 CNS): > 18.3 µM
TGI (SNB-19 CNS): > 18.3 µM
GI50 (SW-620 colon): 5.83 µM
TGI (SW-620 colon): > 18.3 µM
GI50 (MDA-MB-468 breast): 2.87 µM
TGI (MDA-MB-468 breast): 7.73 µM
GI50 (NCI-H522 lung): 3.23 µM
TGI (NCI-H522 lung): 6.53 µM
GI50 (UACC-257 melanoma): > 18.3 µM
TGI (UACC-257 melanoma): > 18.3 µM
GI50 (TK-10 renal): 2.69 µM
TGI (TK-10 renal): 6.03 µM
GI50 (SK-MEL-5 melanoma): > 18.3 µM
TGI (SK-MEL-5 melanoma): > 18.3 µM
